Reference: patent publication US12264146B2, “Rho kinase inhibitor, method for preparing same and uses thereof” (BEIJING INCREASE INNOVATIVE DRUG CO., LTD., priority 2018, dated 2025)
Where a name gives a salt, the structure may show the parent alone.

Key:
endothelin (ET-1) = experiment: Expression of endothelin (ET-1) in EA.Hy926 endothelial cells, detection kit; assay type: cell-based, human; settings: 48 h; for expression of endothelin in endothelial cells: Detection result of test compound at low dose (0.4 μM) / expression of endothelin in endothelial cells: Detection result of test compound at medium dose (2 μM) / expression of endothelin in endothelial cells: Detection result of test compound at high dose (10 μM): EA.Hy926 cell supernatant
Experimental: (§1) Commercially available cytokine kits were used to detect the effects of the compounds of the present application on vascular endothelium-derived contracting factor endothelin, vascular endothelium-derived relaxing factor endothelial nitric oxide synthase, nitric oxide, and prostacyclin factor. The detection was performed according to the kit instructions. When testing the effect of the compound of the present application on cytokines, a normal control group, a fasudil hydrochloride group, and high-, medium- and low-dose groups of the compounds of the present application were set up for testing. The fasudil hydrochloride used in this test example was purchased from Beijing Sihuan Pharmaceutical Co., Ltd., with the SFDA approval number of H20173349. The EA.Hy926 cells used in this test example were purchased from Suzhou Beina Chuanglian Biotechnology Co., Ltd.
EA.Hy926 cells were taken and inoculated in a 96-well plate at 5×10^4 cells/mL, 100 μL per well, and cultured adherently for 24 hours, then the test compound prepared in DMEM medium was added, and an equal volume of DMEM medium was added in the normal control group, then the cells were cultured at 37° C. for 48 hours, and then the cell supernatant was taken and placed in an EP tube, and centrifuged at 3000 r/min, 4° C. for 15 min. The resulting cell supernatant was transferred to a new EP tube, diluted twice with culture medium, and detected according to the instruction of the human endothelin detection kit (purchased from Wuhan Boster Biological Engineering Co., Ltd., batch number 59113731009), and the detection results were shown in Table 2.

[1] = system: endothelial nitric oxide synthase (eNOS); experiment: Endothelial nitric oxide synthase (eNOS) in EA.Hy926 endothelial cells, detection kit; assay type: cell-based; settings: 24 h; for expression of endothelial nitric oxide synthase in endothelial cells: Detection result of test compound at low dose (0.4 μM) / expression of endothelial nitric oxide synthase in endothelial cells: Detection result of test compound at medium dose (2 μM) / expression of endothelial nitric oxide synthase in endothelial cells: Detection result of test compound at high dose (10 μM): EA.Hy926 cell supernatant
Experimental: as §1
Detection conditions: EA.Hy926 cells were inoculated at 1×10^5 […] in a 96-well plate, 100 μL per well, and cultured adherently for 24 hours, then the test compound prepared with DMEM medium was added, the normal control group was added with an equal volume of DMEM medium, then the cells were cultured for 24 hours at 37° C., and then the cell supernatant was taken and placed in an EP tube, and centrifuged at 3000 r/min and 4° C. for 15 minutes, the resulting supernatant was transferred to a new EP tube, diluted 3 times, and detected according to the instruction of eNOs detection kit (purchased from Wuhan Elabscience Biotechnology Co., Ltd., Cat. No. AK0017OCT12013), and the detection results were shown in Table 4.

[2] = Toxicity test on endothelial cells EA.hy926, CCK-8 cell viability; assay type: cell-based; settings: human, 1000~0.32 μmol/L, 5-fold dilution, read-out: IC50 of Test compound (cytotoxicity on EA.hy926 cells)
Experimental: In this test example, 31 groups, i.e., Groups 1 to 31, were set, in which Group 1 was a blank control group, Group 2 was a normal control group, Group 3 was a positive control group, and Groups 4 to 31 were test groups of the compounds of the present application. The specific test operation comprised: 100 μL of endothelial cells EA.hy926 (purchased from Suzhou Beina Chuanglian Biotechnology Co., Ltd.) with a density of 5×10^4 was added to each well of a 96-well plate, and transferred to an incubator at 37° C. with 5% CO2 and saturated humidity conditions and cultured for 24 hours, 100 μL of 2× the test compound solution prepared and diluted with DMEM medium containing 10% fetal bovine serum was added, in which the test compound added in the positive control group was Fasudil hydrochloride (purchased from Beijing Sihuan Pharmaceutical Co., Ltd., SFDA approval number H20173349) solution with different concentrations, an equal volume of DMEM medium was added in the blank control group, an equal volume of PBS buffer was added in the normal control group, and a duplicate well was set for each concentration point. After adding the test compound, the culture was continued in the incubator for 24 hours, then 20 μL of CCK-8 detection solution (purchased from Beijing Solarbio Science & Technology Co., Ltd., Cat. No. CA1210) was added to each well, interacted at 37° C. for 2.5 hours, shaken and mixed well, and then the absorbance value at 450 nm was detected.
OD values were detected, and the cell viability values of test groups of different concentrations were calculated according to the cell viability calculation formula as follows: Cell viability=(Atest group−Ablank control)/(Anormal control−Ablank control)*100%
wherein A represented absorbance value at 450 nm.
Prism6.0 was used to obtain the inhibitor concentration-viability curve and to calculate the IC50 of the test compound, the correlation coefficient R^2>0.99; the inhibitor concentration-viability curves of Fasudil hydrochloride, R-YK1601, R-YK1603, R-YK1606, R-YK1607, R-YK1610 were shown in FIGS. 1 to 6, in which the abscissa was the logarithm on base 10 of the concentration of the test compound, and the ordinate was the cell activity (i.e., cell viability).

SMILES	expression of endothelin in endothelial cells: Detection result of test compound at low dose (0.4 μM) (endothelin (ET-1)) [pg/mL]	expression of endothelin in endothelial cells: Detection result of test compound at medium dose (2 μM) (endothelin (ET-1)) [pg/mL]	expression of endothelin in endothelial cells: Detection result of test compound at high dose (10 μM) (endothelin (ET-1)) [pg/mL]	expression of endothelial nitric oxide synthase in endothelial cells: Detection result of test compound at low dose (0.4 μM) [1] [pg/mL]	expression of endothelial nitric oxide synthase in endothelial cells: Detection result of test compound at medium dose (2 μM) [1] [pg/mL]	expression of endothelial nitric oxide synthase in endothelial cells: Detection result of test compound at high dose (10 μM) [1] [pg/mL]	IC50 at 24 h [2] [µM]	effect on the expression of nitric oxide synthase (in words) ([1]; high dose)	effect on the expression and secretion of endothelin (in words) (endothelin (ET-1); high, medium and low doses)
C[C@@H]1CNCCCN1S(=O)(=O)c1cccc2c(O)ncc(F)c12 [Compound R-YK1604, (R)-4-fluoro-5-((2-methyl-1,4-diazacycloheptan-1-yl)sulfonyl)isoquinolin-1-ol]	232.75 ± 42.51	242.72 ± 20.81	230.03 ± 1.24	2932.05 ± 435.87	2397.93 ± 180.08	2229.68 ± 63.98	210	–	–
C[C@@H]1CNCCCN1S(=O)(=O)c1cccc2c(O)nccc12 [Compound R-YK1601, (R)-5-((2-methyl-1,4-diazacycloheptan-1-yl)sulfonyl)isoquinolin-1-ol]	253.46 ± 19.86	266.61 ± 20.77	243.07 ± 17.37	2526.66 ± 220.56	2339.70 ± 249.84	2598.44 ± 365.33	686	slight promotion effect	–
COc1ncc(C2CC2)c2c(S(=O)(=O)N3CCCNC[C@H]3C)cccc12 [Compound R-YK1600-2, (R)-4-cyclopropyl-1-methoxy-5-((2-methyl-1,4-diazacycloheptan-1-yl)sulfonyl)isoquinoline]	223.55 ± 0.12	225.98 ± 11.41	229.23 ± 0.75	2428.32 ± 287.58	2384.92 ± 317.27	2245.86 ± 224.65	145	–	–
COc1nccc2c(S(=O)(=O)N3CCCNC[C@H]3CCC(C)C)cccc12 [Compound R-YK1612, (R)-5-((2-isopentyl-1,4-diazacycloheptan-1-yl)sulfonyl)-1-methoxyisoquinoline]	232.61 ± 9.70	229.98 ± 11.41	249.23 ± 0.75	2776.58 ± 261.27	2456.67 ± 226.85	2286.671 ± 195.06	176	–	–
COc1ncc(F)c2c(S(=O)(=O)N3CCCNC[C@H]3C)cccc12 [Compound R-YK1605, (R)-4-fluoro-1-methoxy-5-((2-methyl-1,4-diazacycloheptan-1-yl)sulfonyl)isoquinoline]	231.61 ± 9.70	228.98 ± 11.41	259.53 ± 0.75	2752.53 ± 779.12	2261.58 ± 253.77	2105.70 ± 87.14	184	–	–
O=S(=O)(c1cccc2cnccc12)N1CCCNCC1 [Fasudil hydrochloride, reference compound]	254.29 ± 3.35	252.58 ± 3.92	325.69 ± 9.78	2810.61 ± 13.02	2648.66 ± 9.59	2636.14 ± 188.26	75.7	–	significantly promote the expression and secretion of endothelin
CCc1cnc(O)c2cccc(S(=O)(=O)N3CCCNC[C@H]3C)c12 [Compound R-YK1607, (R)-4-ethyl-5-((2-methyl-1,4-diazacycloheptan-1-yl)sulfonyl)isoquinolin-1-ol]	248.20 ± 2.28	259.34 ± 7.96	237.68 ± 3.34	2426.66 ± 220.56	2239.70 ± 249.84	2298.44 ± 265.33	230	–	–
C[C@@H]1CNCCCN1S(=O)(=O)c1cccc2c(O)ncc(Cl)c12 [Compound R-YK1606, (R)-4-chloro-5-((2-methyl-1,4-diazacycloheptan-1-yl)sulfonyl)isoquinolin-1-ol]	231.75 ± 32.51	242.62 ± 19.81	231.03 ± 1.24	2974.79 ± 361.75	2400.67 ± 226.73	2286.01 ± 95.04	181	–	–
CC[C@@H]1CNCCCN1S(=O)(=O)c1cccc2c(OC)nccc12 [Compound R-YK1610, (R)-5-((2-ethyl-1,4-diazacycloheptan-1-yl)sulfonyl)-1-methoxyisoquinoline]	259.20 ± 2.21	260.34 ± 7.94	238.68 ± 3.34	2632.05 ± 235.87	2397.93 ± 280.08	2329.68 ± 263.98	169	–	–
